According to paper PMC8508980, “Design, Synthesis and Anticancer Profile of New 4-(1H-benzo[d]imidazol-1-yl)pyrimidin-2-amine-Linked Sulfonamide Derivatives with V600EBRAF Inhibitory Effect” (International Journal of Molecular Sciences, 2021):

Assays:
V600EBRAF = target: T1, V600EBRAF (Homo sapiens, UniProt P15056, V600E); test: Reaction Biology kinase HotSpot enzyme assay; assay type: biochemical; conditions: 1 µM ATP; for IC50: mean ± S.D. of two separate experiments; for % Inhibition at 1 µM over V600EBRAF / inhibition at 1 µM: single dose 1 µM, mean ± S.D. of two experiments; for inhibition at 1 µM: read-out: % Inhibition at 1 µM over V600EBRAF
T1 construct: purchased Reaction Biology Corp. (Kinase HotSpot service)
Protocol: Reaction Biology Corp. Kinase HotSpotTM service
Proﬁler Express for IC50 measurement. Assay protocol: In a ﬁnal reaction volume of 25 μL, kinase (5–10 mU) is incubated with 25 mM Tris pH 7.5, 0.02 mM EGTA, 0.66 mg/mL myelin basic protein, 10 mM magnesium acetate and [γ33P-ATP] (speciﬁc activity approx. 500 cpm/pmol, concentration as required). The reaction is initiated by the addition of the Mg-ATP mix. After incubation for 40 min at room temperature, the reaction is stopped by the addition of 5 μL of a 3% phosphoric acid solution. 10 μL of the reaction is then spotted onto a P30 ﬁltermat, and washed three times for 5 min in 75 mM phosphoric acid and once in methanol prior to drying and scintillation counting.

OVCAR-8 = test: NCI 60 cell line screen; assay type: cell-based; conditions: Homo sapiens; OVCAR-8, Ovarian Cancer; read-out: Percent growth
Protocol: (§1) Anticancer profiling over a panel of 60 cancer cell lines was carried out at the National Cancer Institute (NCI), Bethesda, Maryland, USA, https://dtp.cancer.gov/discovery_development/nci-60/methodology.htm (Last visit 22 September 2021), using the standard procedure (detailed procedure is located in the Supplementary Information page 50 s).
(§2) NCI standard procedure for 60 cell lines assay
(§3) The human tumor cell lines of the cancer screening panel are grown in RPMI 1640 mediu m containing 5% fetal bovine serum and 2 mM L-glutamine. For a typical screening experiment, cells are inoculated into 96 well microtiter plates in 100 μL at plating densities ranging from 5,000 to 40,000 cells/well depending on the doubling time of individual cell lines. After cell inoculation, the microtiter plates are incubated at 37° C, 5 % CO2, 95 % air and 100 % relative humidity for 24 h prior to addition of experimental drugs.
(§4) After 24 h, two plates of each cell line are fixed in situ with TCA, to represent a measurement of the cell population for each cell line at the time of drug addition (Tz). Experimental drugs are solubilized in dimethyl sulfoxide at 400-fold the desired final maximum test concentration (10 µM) and stored frozen prior to use. At the time of drug addition, an aliquot of frozen concentrate is thawed and diluted to twice the desired final maximum test concentration with co mp lete medium containing 50 μg/ml gentamicin. Additional four, 10-fold or ½ log serial dilutions are made to provide a total of five drug concentrations plus control. Aliquots of 100 μl of these different drug dilutions are added to the appropriate microtiter wells already containing 100 μl of medium, resulting in the required final drug concentrations.
(§5) Following drug addition, the plates are incubated for an additional 48 h at 37°C, 5 % CO2, 95 % air, and 100 % relative humidity. For adherent cells, the assay is terminated by the addition of cold TCA. Cells are fixed in situ by the gentle addition of 50 μl of cold 50 % (w/v) TCA (final concentration, 10 % TCA) and incubated for 60 minutes at 4°C. The supernatant is discarded, and the plates are washed five times with tap water and air dried. Sulforhodamine B (SRB) solution (100 μl) at 0.4 % (w/v) in 1 % acetic acid is added to each well, and plates are incubated for 10 minutes at room temperature. After staining, unbound dye is removed by washing five times with 1 % acetic acid and the plates are air dried. Bound stain is subsequently solubilized with 10 mM trizma base, and the absorbance is read on an automated plate reader at a wavelength of 515 nm. For suspension cells, the methodology is the same except that the assay is terminated by fixing settled cells at the bottom of the wells by g ently adding 50 μl of 80 % TCA (final concentration, 16 % TCA). Using the seven absorbance measurements [time zero, (Tz), control growth, (C), and test growth in the presence of drug at the five concentration levels (Ti)], the percentage growth is calculated at each of the drug concentrations levels. Percentage growth inhibition is calculated as:
(§6) [(Ti-Tz)/(C-Tz)] x 100 for concentrations for which Ti>/=Tz
(§7) [(Ti-Tz)/Tz] x 100 for concentrations for which Ti<Tz.
(§8) Three dose response parameters are calculated for each experimental agent. Growth inhibition of […]
(§9) resulting in a 50% reduction in the net protein increase (as measured by SRB staining) in control cells during the drug incubation. The drug concentration resulting in total growth inhibition […]
(§10) (TGI) is calculated from Ti = Tz.

HCC-2998 = test: NCI 60 cell line screen; assay type: cell-based; conditions: Homo sapiens; HCC-2998, Colon Cancer; read-out: Percent growth
Protocol: as §1, §2, §3, §4, §5, §6, §7, §8, §9, §10

ACHN = test: NCI 60 cell line screen; assay type: cell-based; conditions: Homo sapiens, Renal Cancer, read-out: Percent growth
Protocol: as §1, §2, §3, §4, §5, §6, §7, §8, §9, §10

SK-MEL-2 = test: NCI 60 cell line screen; assay type: cell-based; conditions: Homo sapiens; SK-MEL-2, Melanoma; read-out: Percent growth
Protocol: as §1, §2, §3, §4, §5, §6, §7, §8, §9, §10

UACC-62 = test: NCI 60 cell line screen; assay type: cell-based; conditions: Homo sapiens; UACC-62, Melanoma; read-out: Percent growth
Protocol: as §1, §2, §3, §4, §5, §6, §7, §8, §9, §10

MDA-MB-231/ATCC = test: NCI 60 cell line screen; assay type: cell-based; conditions: Homo sapiens, Breast Cancer, read-out: Percent growth
Protocol: as §1, §2, §3, §4, §5, §6, §7, §8, §9, §10

SK-MEL-28 = test: NCI 60 cell line screen; assay type: cell-based; conditions: Homo sapiens; SK-MEL-28, Melanoma; read-out: Percent growth
Protocol: as §1, §2, §3, §4, §5, §6, §7, §8, §9, §10

MALME-3M = test: NCI 60 cell line screen; assay type: cell-based; conditions: Homo sapiens, Melanoma, read-out: Percent growth
Protocol: as §1, §2, §3, §4, §5, §6, §7, §8, §9, §10

LOX IMVI = test: NCI 60 cell line screen; assay type: cell-based; conditions: Homo sapiens, Melanoma, read-out: Percent growth
Protocol: as §1, §2, §3, §4, §5, §6, §7, §8, §9, §10

BT-549 = test: NCI 60 cell line screen; assay type: cell-based; conditions: Homo sapiens; BT-549, Breast Cancer; read-out: Percent growth
Protocol: as §1, §2, §3, §4, §5, §6, §7, §8, §9, §10

786-0 = test: NCI 60 cell line screen; assay type: cell-based; conditions: Homo sapiens; 786-0, Renal Cancer; read-out: Percent growth
Protocol: as §1, §2, §3, §4, §5, §6, §7, §8, §9, §10

IGROV1 = test: NCI 60 cell line screen; assay type: cell-based; conditions: Homo sapiens, IGROV-1; IGROV1, Ovarian Cancer; read-out: Percent growth
Protocol: as §1, §2, §3, §4, §5, §6, §7, §8, §9, §10

HL-60(TB) = test: NCI 60 cell line screen; assay type: cell-based; conditions: Homo sapiens, Leukemia, read-out: Percent growth
Protocol: as §1, §2, §3, §4, §5, §6, §7, §8, §9, §10

NCI-H322M = test: NCI 60 cell line screen; assay type: cell-based; conditions: Homo sapiens, Non-Small Cell Lung Cancer, read-out: Percent growth
Protocol: as §1, §2, §3, §4, §5, §6, §7, §8, §9, §10

OVCAR-5 = test: NCI 60 cell line screen; assay type: cell-based; conditions: Homo sapiens; OVCAR-5, Ovarian Cancer; read-out: Percent growth
Protocol: as §1, §2, §3, §4, §5, §6, §7, §8, §9, §10

SF-539 = test: NCI 60 cell line screen; assay type: cell-based; conditions: Homo sapiens; SF-539, CNS-Cancer; read-out: Percent growth
Protocol: as §1, §2, §3, §4, §5, §6, §7, §8, §9, §10

T1 sequence (P15056 whole entry V600E): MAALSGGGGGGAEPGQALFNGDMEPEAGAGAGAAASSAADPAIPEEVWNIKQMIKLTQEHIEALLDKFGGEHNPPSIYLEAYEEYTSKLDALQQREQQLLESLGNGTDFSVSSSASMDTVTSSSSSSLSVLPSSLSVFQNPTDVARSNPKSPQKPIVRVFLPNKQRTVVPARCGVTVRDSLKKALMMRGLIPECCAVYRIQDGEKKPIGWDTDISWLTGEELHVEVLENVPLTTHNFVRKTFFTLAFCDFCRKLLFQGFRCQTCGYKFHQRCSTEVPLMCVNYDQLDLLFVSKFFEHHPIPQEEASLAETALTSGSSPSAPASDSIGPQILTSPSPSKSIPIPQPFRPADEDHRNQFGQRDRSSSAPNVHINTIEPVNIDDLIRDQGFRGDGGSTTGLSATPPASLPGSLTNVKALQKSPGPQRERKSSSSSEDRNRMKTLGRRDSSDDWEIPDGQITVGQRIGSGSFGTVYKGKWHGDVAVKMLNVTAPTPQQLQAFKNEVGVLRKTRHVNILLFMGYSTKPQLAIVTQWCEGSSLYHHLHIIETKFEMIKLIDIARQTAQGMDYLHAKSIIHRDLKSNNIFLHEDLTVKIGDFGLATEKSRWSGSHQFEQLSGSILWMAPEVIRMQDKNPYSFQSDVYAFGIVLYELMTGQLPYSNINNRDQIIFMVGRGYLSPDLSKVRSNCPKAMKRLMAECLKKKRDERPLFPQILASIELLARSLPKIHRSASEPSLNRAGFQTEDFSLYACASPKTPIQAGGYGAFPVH

SMILES	IC50 (V600EBRAF)	% Inhibition at 1 µM over V600EBRAF (V600EBRAF)	inhibition at 1 µM (V600EBRAF)	activity at 10 µM (OVCAR-8)	activity at 10 µM (HCC-2998)	activity at 10 µM (ACHN)	activity at 10 µM (SK-MEL-2)	activity at 10 µM (UACC-62)	activity at 10 µM (MDA-MB-231/ATCC)	activity at 10 µM (SK-MEL-28)	activity at 10 µM (MALME-3M)	activity at 10 µM (LOX IMVI)	activity at 10 µM (BT-549)	activity at 10 µM (786-0)	activity at 10 µM (IGROV1)	activity at 10 µM (HL-60(TB))	activity at 10 µM (NCI-H322M)	activity at 10 µM (OVCAR-5)	activity at 10 µM (SF-539)
O=S(=O)(NCCCNc1nccc(-n2cnc3ccccc32)n1)c1ccc(Br)cc1 [12k, N-(3-((4-(1H-benzo [d]imidazol-1-yl)pyrimidin-2-yl)amino)propyl)-4-bromo benzenesulfonamide]	810 ± 56 nM	73.81 ± 0.75%	74%	82.5%	112%	90.4%	105%	77.3%	83.6%	102%	104%	94.6%	80.8%	91.7%	101%	99.8%	103%	97%	85.2%
COc1ccc(S(=O)(=O)NCCCNc2nccc(-n3cnc4ccccc43)n2)cc1 [12m, N-(3-((4-(1H-benzo [d]imidazol-1-yl)pyrimidin-2-yl)amino)propyl)-4-methoxy benzenesulfonamide]	820 ± 48 nM	51.26 ± 0.29%	51%	93.7%	111%	88.2%	103%	76.3%	84.1%	106%	107%	93.4%	92.9%	95.9%	91.5%	110%	104%	99.6%	83.9%
O=S(=O)(NCCNc1nccc(-n2cnc3ccccc32)n1)c1ccc(Br)cc1 [12d, N-(2-((4-(1H-benzo [d]imidazol-1-yl)pyrimidin-2-yl)amino)ethyl)-4-bromobenzenesulfonamide]	910 ± 19 nM	69.28 ± 0.51%	69%	95.6%	103%	93.6%	108%	82.8%	88.2%	108%	103%	99.1%	115%	103%	90.7%	114%	107%	94%	96.2%
COc1ccc(S(=O)(=O)NCCNc2nccc(-n3cnc4ccccc43)n2)cc1 [12f, N-(2-((4-(1H-benzo [d]imidazol-1-yl)pyrimidin-2-yl)amino)ethyl)-4-methoxy benzenesulfonamide]	980 ± 20 nM	55.21 ± 0.52%	55%	91.5%	99.7%	97.1%	106%	76.6%	92.1%	97.9%	91.7%	91.7%	97.8%	93%	89%	106%	92.6%	93.9%	96.2%
O=S(=O)(NCCCNc1nccc(-n2cnc3ccccc32)n1)c1ccc(Cl)cc1 [12j, N-(3-((4-(1H-benzo [d]imidazol-1-yl)pyrimidin-2-yl)amino)propyl)-4-chloro benzenesulfonamide]	790 ± 51 nM	88.14 ± 0.19%	88%	90.8%	108%	94.1%	108%	81.5%	89.4%	108%	103%	107%	90.1%	103%	114%	108%	104%	105%	91.9%
O=S(=O)(NCCNc1nccc(-n2cnc3ccccc32)n1)c1ccc(F)cc1 [12b, N-(2-((4-(1H-benzo [d]imidazol-1-yl)pyrimidin-2-yl)amino)ethyl)-4-fluorobenzenesulfonamide]	740 ± 51 nM	75.17 ± 0.27%	75%	89%	104%	88.3%	101%	71.3%	81.8%	101%	93.7%	93.2%	82.2%	102%	89.3%	106%	95.6%	86.6%	83.7%
O=S(=O)(NCCNc1nccc(-n2cnc3ccccc32)n1)c1ccccc1 [12a, N-(2-((4-(1H-benzo [d]imidazol-1-yl)pyrimidin-2-yl)amino)ethyl)benzenesulfonamide]	1910 ± 140 nM	30.35 ± 0.41%	30%	98%	106%	94.2%	115%	78.3%	87.6%	108%	101%	95%	106%	103%	89.9%	113%	94.9%	92.5%	96.1%
